From patent publication US10828301B2, “2,4-pyrimidinediamine compounds and their uses” (Rigel Pharmaceuticals, Inc, priority 2002, dated 2020)

How the values were obtained:
[1] = tested on: cultured human mast cells (CHMC); assay: CHMC low cell density IgE activation: tryptase and LTC4 assays; type: cell-based; settings: read-out: CHMC anti-IgE Tryptase
Summary of the method: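 Degranulation measured after 30 min anti-IgE challenge at 37° C of CHMC plated at 1000-1500 cells/well following 1 h preincubation. Readouts: LTC4 by ELISA on donor-specific diluted supernatants, and tryptase activity from a 30 min room-temperature substrate reaction.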

[2] = tested on: cultured human mast cells (CHMC); assay: CHMC low cell density ionomycin activation: tryptase assay; type: cell-based; settings: read-out: CHMC Ionomycin Tryptase
[3] = Homo sapiens, Mast cell, Low Density CHMC, anti-IgE activation, tryptase readout
[4] = Homo sapiens, Mast cell, Low Density CHMC, ionomycin activation, tryptase readout

SMILES | IC50 [1, 3] [µM] | IC50 [2, 4] [µM] | further results
Oc1cccc(Nc2nc(NCc3ccc4c(c3)OCCO4)ncc2F)c1 [Compound R945168, N2-(2,3-Dihydro-1,4-benzodioxin-6-ylmethyl)-5-fluoro-N4-(3-hydroxyphenyl)-2,4-pyrimidinediamine] | 10 | > 10 | 
O=C1CCNC2=COc3ccc(Nc4nc(Nc5cccc(O)c5)ncc4F)cc3N12 [Compound R945237, 5-Fluoro-N2-(3-hydroxyphenyl)-N4-[1-oxo-1,2,3,6-tetrahydropyrimido[2,1-c][1,4]benzoxazin-9-yl]-2,4-pyrimidinediamine] | 0.461 | > 10 | 
Fc1cnc(Nc2ccc(OCc3ccccc3)c(C(F)(F)F)c2)nc1Nc1ccc(OCc2ccccc2)c(C(F)(F)F)c1 [Compound R950090, N2,N4-Bis(4-benzyloxy-3-trifluoromethylphenyl)-5-fluoro-2,4-pyrimidinediamine] | > 10 | > 10 | 
N#Cc1cc(Nc2ncc(F)c(Nc3ccc(O)c(C#N)c3)n2)ccc1O [Compound R950092, N2,N4-Bis(3-cyano-4-hydroxyphenyl)-5-fluoro-2,4-pyrimidinediamine] | > 10 | > 10 | 
Oc1ccc(Nc2ncc(F)c(Nc3ccc(O)c(C(F)(F)F)c3)n2)cc1C(F)(F)F [Compound R950093, N2,N4-Bis(4-hydroxy-3-trifluoromethylphenyl)-5-fluoro-2,4-pyrimidinediamine] | 0.64 | 5.55 | 
CC(C)(C)OC(=O)Nc1cccc(Nc2ncc(F)c(Nc3cccc(NC(=O)OC(C)(C)C)c3)n2)c1 [Compound R950108, N2,N4-Bis[3-(tert-butoxycarbonylamino)phenyl]-5-fluoro-2,4-pyrimidinediamine] | 2.08 | > 10 | 
CC(C)(C)OC(=O)Nc1ccc(Nc2ncc(F)c(Nc3ccc(NC(=O)OC(C)(C)C)cc3)n2)cc1 [Compound R950120, N2,N4-Bis[4-(tert-butoxycarbonylamino)phenyl]-5-fluoro-2,4-pyrimidinediamine] | 3 | > 10 | 
Nc1cc(Nc2ccnc(Nc3ccc(Nc4ccccc4)c(N)c3)n2)ccc1Nc1ccccc1 [Compound R950123, N2,N4-Bis[3-amino-4-(N-phenylamino)-phenyl]-2,4-pyrimidinediamine] | 3.25 | 8.45 | 
Nc1cc(Nc2ncc(F)c(Nc3ccc(Nc4ccccc4)c(N)c3)n2)ccc1Nc1ccccc1 [Compound R950125, N2,N4-Bis[3-amino-4-(N-phenylamino)-phenyl]-5-fluoro-2,4-pyrimidinediamine] | 1.38 | 6.3 | 
Cc1ccc(Nc2ncc(F)c(Nc3ccc(C)c(N)c3)n2)cc1N [Compound R950129, N2,N4-Bis(3-amino-4-methylphenyl)-5-fluoro-2,4-pyrimidinediamine] | 0.665 | > 10 | 
Nc1cc(Cl)cc(Nc2ccnc(Nc3cc(N)cc(Cl)c3)n2)c1 [Compound R950133, N2,N4-Bis(3-amino-5-chlorophenyl)-2,4-pyrimidinediamine] | 2.2 | > 10 | 
COC(=O)c1cc(N)cc(Nc2ncc(F)c(Nc3cc(N)cc(C(=O)OC)c3)n2)c1 [Compound R950134, N2,N4-Bis(3-amino-5-methoxycarbonylphenyl)-5-fluoro-2,4-pyrimidinediamine] | 1.88 | > 10 | 
Nc1cc(Nc2ncc(F)c(Nc3ccc([N+](=O)[O-])c(N)c3)n2)ccc1[N+](=O)[O-] [Compound R950135, N2,N4-Bis(3-amino-4-nitrophenyl)-5-fluoro-2,4-pyrimidinediamine] |  |  | IC50 ([1]; Homo sapiens, Mast cell): 0.85 µM; IC50 ([2]; Homo sapiens, Mast cell): > 10 µM
O=[N+]([O-])c1cc(Nc2ncc(F)c(Nc3ccc(F)c([N+](=O)[O-])c3)n2)ccc1F [Compound R950148, N2,N4-Bis(4-fluoro-3-nitrophenyl)-5-fluoro-2,4-pyrimidinediamine] |  |  | IC50 ([1]; Homo sapiens, Mast cell): 2.27 µM; IC50 ([2]; Homo sapiens, Mast cell): > 10 µM
O=[N+]([O-])c1cc(Nc2ncc(F)c(Nc3ccc(Cl)c([N+](=O)[O-])c3)n2)ccc1Cl [Compound R950149, N2,N4-Bis(4-chloro-3-nitrophenyl)-5-fluoro-2,4-pyrimidinediamine] |  |  | IC50 ([1]; Homo sapiens, Mast cell): 10 µM; IC50 ([2]; Homo sapiens, Mast cell): > 10 µM
O=[N+]([O-])c1cc(Nc2ccnc(Nc3ccc(Cl)c([N+](=O)[O-])c3)n2)ccc1Cl [Compound R950154, N2,N4-Bis(4-chloro-3-nitrophenyl)-2,4-pyrimidinediamine] |  |  | IC50 ([1]; Homo sapiens, Mast cell): 2.08 µM; IC50 ([2]; Homo sapiens, Mast cell): > 10 µM
O=[N+]([O-])c1cccc(Nc2ncc(F)c(Nc3cccc([N+](=O)[O-])c3)n2)c1 [Compound R950160, N2,N4-Bis(3-nitrophenyl)-5-fluoro-2,4-pyrimidinediamine] |  |  | IC50 ([1]; Homo sapiens, Mast cell): 1 µM; IC50 ([2]; Homo sapiens, Mast cell): > 10 µM
CC(C)(C)OC(=O)C=Nc1cccc(Nc2ncc(F)c(Nc3cccc(N=CC(=O)OC(C)(C)C)c3)n2)c1 [Compound R950177, N2,N4-Bis(3-tert-butoxycarbonylmethyleneaminophenyl)-5-fluoro-2,4-pyrimidinediamine] | 2.36 | 8.43 | 
CC(C)(C)OC(=O)C=Nc1cccc(Nc2ncc(F)c(Nc3cccc(N)c3)n2)c1 [Compound R950178, N4-(3-Aminophenyl)-N2-(3-tert-butoxycarbonylmethyleneaminophenyl)-5-fluoro-2,4-pyrimidinediamine] | 0.688 | > 10 | 
CC(C)(C)OC(=O)C=Nc1cccc(Nc2nc(Nc3cccc(N)c3)ncc2F)c1 [Compound R950179, N2-(3-Aminophenyl)-N4-(3-tert-butoxycarbonylmethyleneaminophenyl)-5-fluoro-2,4-pyrimidinediamine] | 0.955 | > 10 | 
CNc1ncc(F)c(Nc2ccc3c(c2)OCCO3)n1 [Compound R950189] |  |  | IC50 ([1]; Low Density CHMC, anti-IgE activation, tryptase readout): 10 µM; IC50 ([2]; Low Density CHMC, ionomycin activation, tryptase readout): > 10 µM

Second part, led by results:

IC50 [1, 3] [µM] | IC50 [2, 4] [µM] | SMILES | further results
1.38 | > 10 | CCOc1ccc(Nc2ncc(F)c(Nc3ccc(OCC)c(N)c3)n2)cc1N [Compound R950139, N2,N4-Bis(3-amino-4-ethoxyphenyl)-5-fluoro-2,4-pyrimidinediamine] | 
2.83 | > 10 | Nc1cc(Nc2ncc(F)c(Nc3cc(N)cc(C(F)(F)F)c3)n2)cc(C(F)(F)F)c1 [Compound R950140, N2,N4-Bis(3-amino-5-trifluoromethylphenyl)-5-fluoro-2,4-pyrimidinediamine] | 
0.61 | > 10 | Nc1cc(Nc2ncc(F)c(Nc3ccc(F)c(N)c3)n2)ccc1F [Compound R950159, N2,N4-Bis(3-amino-4-fluorophenyl)-5-fluoro-2,4-pyrimidinediamine] | 
0.434 | > 10 | COC(=O)c1cc2cc(Nc3ncc(F)c(Nc4cccc(N)c4)n3)ccc2o1 [Compound R950162, N4-(3-Aminophenyl)-5-fluoro-N2-(2-methoxycarbonylbenzofurane-5-yl)-2,4-pyrimidinediamine] | 
0.874 | > 10 | Nc1cccc(Nc2nc(Nc3cccc(O)c3)ncc2F)c1 [Compound R950163, N4-(3-Aminophenyl)-5-fluoro-N2-(3-hydroxyphenyl)-2,4-pyrimidinediamine] | 
1.89 | > 10 | CC(C)Oc1cccc(Nc2ncc(F)c(Nc3cccc(N)c3)n2)c1 [Compound R950164, N4-(3-Aminophenyl)-5-fluoro-N2-(3-isopropoxyphenyl)-2,4-pyrimidinediamine] | 
1.29 | > 10 | CC(C)Oc1ccc(Nc2ncc(F)c(Nc3cccc(N)c3)n2)cc1 [Compound R950165, N4-(3-Aminophenyl)-5-fluoro-N2-(4-isopropoxyphenyl)-2,4-pyrimidinediamine] | 
1.89 | > 10 | CC(C)Nc1cccc(Nc2ncc(F)c(Nc3cccc(NC(C)C)c3)n2)c1 [Compound R950166, N2,N4-Bis[3-(N-isopropyl)aminophenyl]-5-fluoro-2,4-pyrimidinediamine] | 
0.627 | > 10 | CN(C)c1cccc(Nc2ncc(F)c(Nc3cccc(N(C)C)c3)n2)c1 [Compound R950182, N2,N4-Bis[3-(dimethylamino)phenyl]-5-fluoro-2,4-pyrimidinediamine] | 
4.8 | > 10 | CCOC(=O)C=Nc1cccc(Nc2nc(N(CC(=O)OCC)c3cccc(N=CC(=O)OCC)c3)ncc2F)c1 [Compound R950183, N2,N4-Bis(3-ethoxycarbonylmethyleneaminophenyl)-N2-(ethoxycarbonylmethyl)-5-fluoro-2,4-pyrimidinediamine] | 
2.22 | > 10 | CCOC(=O)C=Nc1cccc(Nc2ncc(F)c(Nc3cccc(N=CC(=O)OCC)c3)n2)c1 [Compound R950184, N2,N4-Bis(3-ethoxycarbonylmethyleneaminophenyl)-5-fluoro-2,4-pyrimidinediamine] | 
0.558 | > 10 | CCOC(=O)C=Nc1cccc(Nc2ncc(F)c(Nc3ccc4c(c3)OCCO4)n2)c1 [Compound R950186, N4-(3,4-Ethylenedioxyphenyl)-N2-(3-ethoxycarbonylmethyleneaminophenyl)-5-fluoro-2,4-pyrimidinediamine] | 
9.04 | > 10 | Fc1cnc(N=Cc2ccoc2)nc1Nc1ccc2c(c1)OCCO2 [Compound R950203, N4-(3,4-Ethylenedioxyphenyl)-N2-(3-furanylmethylene)-5-fluoro-2,4-pyrimidinediamine] | 
6.29 | > 10 | COc1ccc(OCCNc2ncc(F)c(Nc3ccc4c(c3)OCCO4)n2)cc1 [Compound R950204, N4-(3,4-Ethylenedioxyphenyl)-5-fluoro-N2-[(4-methoxyphenyloxy)ethyl]-2,4-pyrimidinediamine] | 
